The values below come from US20240269139A1, “COMPOUNDS FOR TARGETED PROTEIN DEGRADATION OF KINASES” (DANA-FARBER CANCER INSTITUTE, INC., priority 2020, published 2024).

Like-named read-outs stand apart in the source and are kept apart here.

Format in all cases: cell-based
For assay [1], the target named is protein kinases (human kinome) (Homo sapiens, UniProt O43353). The settings on record: for logFC: RIPK2 (O43353-1).
The target in assay [2] is protein kinases (human kinome) (Homo sapiens, UniProt Q9H3S4). The conditions noted are these: TPK1 (Q9H3S4); experiment wp114.
Sequence of protein kinases (human kinome) (Homo sapiens, UniProt Q9H3S4) (Q9H3S4 whole entry): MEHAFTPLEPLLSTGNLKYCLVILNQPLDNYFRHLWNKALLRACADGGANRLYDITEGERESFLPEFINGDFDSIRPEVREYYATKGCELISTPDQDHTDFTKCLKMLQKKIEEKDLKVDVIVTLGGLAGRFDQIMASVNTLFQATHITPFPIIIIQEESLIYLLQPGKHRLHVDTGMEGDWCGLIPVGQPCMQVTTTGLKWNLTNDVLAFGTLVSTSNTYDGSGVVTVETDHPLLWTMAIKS
Assay [3] deals with T1, protein kinases (human kinome) (Homo sapiens, UniProt Q8TBX8).
T1 sequence (Q8TBX8 1-421): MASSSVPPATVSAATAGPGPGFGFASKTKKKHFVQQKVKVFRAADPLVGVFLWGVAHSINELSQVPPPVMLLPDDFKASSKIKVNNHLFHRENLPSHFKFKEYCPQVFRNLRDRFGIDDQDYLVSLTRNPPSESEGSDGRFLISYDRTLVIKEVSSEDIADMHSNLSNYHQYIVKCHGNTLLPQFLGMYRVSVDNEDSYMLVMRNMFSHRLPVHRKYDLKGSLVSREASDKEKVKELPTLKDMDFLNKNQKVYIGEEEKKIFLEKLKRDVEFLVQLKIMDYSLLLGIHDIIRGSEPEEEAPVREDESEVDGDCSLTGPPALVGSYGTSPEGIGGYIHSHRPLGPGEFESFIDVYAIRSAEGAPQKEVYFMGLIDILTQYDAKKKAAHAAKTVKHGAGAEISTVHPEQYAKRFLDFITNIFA
The conditions noted are these: PIP4K2C Q8TBX8-1.

Assay [4] addresses T2, protein kinases (human kinome) (Homo sapiens, UniProt Q9Y616).
T2 sequence (Q9Y616 1-596): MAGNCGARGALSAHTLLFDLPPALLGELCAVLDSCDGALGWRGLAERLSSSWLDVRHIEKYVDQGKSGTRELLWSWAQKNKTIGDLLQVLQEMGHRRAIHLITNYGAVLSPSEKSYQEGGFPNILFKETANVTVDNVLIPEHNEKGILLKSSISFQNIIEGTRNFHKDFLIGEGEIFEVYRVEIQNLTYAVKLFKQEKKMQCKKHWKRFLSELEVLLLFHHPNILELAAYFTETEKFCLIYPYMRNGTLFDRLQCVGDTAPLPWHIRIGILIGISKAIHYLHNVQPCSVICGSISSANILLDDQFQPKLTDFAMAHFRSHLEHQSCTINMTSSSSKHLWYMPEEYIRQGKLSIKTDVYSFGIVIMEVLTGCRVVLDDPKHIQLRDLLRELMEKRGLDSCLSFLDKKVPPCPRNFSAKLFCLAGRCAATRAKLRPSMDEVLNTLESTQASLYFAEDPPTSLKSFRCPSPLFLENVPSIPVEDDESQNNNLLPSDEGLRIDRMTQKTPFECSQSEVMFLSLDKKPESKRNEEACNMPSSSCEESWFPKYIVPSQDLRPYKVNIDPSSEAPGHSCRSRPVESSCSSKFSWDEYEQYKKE
The settings on record: experiment wp146; for logFC: IRAK3 (Q9Y616).

The target in assay [5] is protein kinases (human kinome) (Homo sapiens, UniProt O00746). The settings on record: NME4 (O00746); experiment wp084.
Sequence of protein kinases (human kinome) (Homo sapiens, UniProt O00746) (O00746 29-187): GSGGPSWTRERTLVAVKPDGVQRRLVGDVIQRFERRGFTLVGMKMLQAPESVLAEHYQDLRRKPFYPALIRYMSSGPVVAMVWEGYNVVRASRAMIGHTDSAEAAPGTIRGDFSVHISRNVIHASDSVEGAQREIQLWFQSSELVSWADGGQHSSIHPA
In assay [6] the target is T3, protein kinases (human kinome) (Homo sapiens, UniProt P52789).
T3 sequence (P52789 1-917): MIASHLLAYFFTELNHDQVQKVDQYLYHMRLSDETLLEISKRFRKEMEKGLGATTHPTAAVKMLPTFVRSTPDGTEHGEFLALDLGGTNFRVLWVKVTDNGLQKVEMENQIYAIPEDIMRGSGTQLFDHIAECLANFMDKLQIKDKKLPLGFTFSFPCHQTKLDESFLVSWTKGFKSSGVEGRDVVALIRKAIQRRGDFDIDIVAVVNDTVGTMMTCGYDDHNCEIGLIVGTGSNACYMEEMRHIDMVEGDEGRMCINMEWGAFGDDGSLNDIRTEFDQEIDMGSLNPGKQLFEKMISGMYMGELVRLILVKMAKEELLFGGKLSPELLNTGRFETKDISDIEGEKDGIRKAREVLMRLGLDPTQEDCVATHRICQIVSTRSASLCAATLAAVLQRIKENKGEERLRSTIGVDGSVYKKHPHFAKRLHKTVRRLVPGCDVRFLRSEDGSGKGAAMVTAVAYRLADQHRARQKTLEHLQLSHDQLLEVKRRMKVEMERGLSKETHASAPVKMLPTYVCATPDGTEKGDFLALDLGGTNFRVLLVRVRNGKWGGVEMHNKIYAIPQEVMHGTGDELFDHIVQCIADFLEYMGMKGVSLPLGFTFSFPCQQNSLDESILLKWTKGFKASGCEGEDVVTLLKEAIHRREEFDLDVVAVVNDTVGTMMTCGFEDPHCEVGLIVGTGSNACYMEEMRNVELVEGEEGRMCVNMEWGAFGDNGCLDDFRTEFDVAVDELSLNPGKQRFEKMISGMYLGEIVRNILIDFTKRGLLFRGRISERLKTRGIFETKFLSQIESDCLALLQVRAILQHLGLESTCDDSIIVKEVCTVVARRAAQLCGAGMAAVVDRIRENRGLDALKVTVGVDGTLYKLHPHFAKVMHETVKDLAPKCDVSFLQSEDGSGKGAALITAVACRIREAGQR
The conditions noted are these: HK2 (P52789); experiment wp076.

Sequence of protein kinases (human kinome) (Homo sapiens, UniProt O43353) (O43353 whole entry): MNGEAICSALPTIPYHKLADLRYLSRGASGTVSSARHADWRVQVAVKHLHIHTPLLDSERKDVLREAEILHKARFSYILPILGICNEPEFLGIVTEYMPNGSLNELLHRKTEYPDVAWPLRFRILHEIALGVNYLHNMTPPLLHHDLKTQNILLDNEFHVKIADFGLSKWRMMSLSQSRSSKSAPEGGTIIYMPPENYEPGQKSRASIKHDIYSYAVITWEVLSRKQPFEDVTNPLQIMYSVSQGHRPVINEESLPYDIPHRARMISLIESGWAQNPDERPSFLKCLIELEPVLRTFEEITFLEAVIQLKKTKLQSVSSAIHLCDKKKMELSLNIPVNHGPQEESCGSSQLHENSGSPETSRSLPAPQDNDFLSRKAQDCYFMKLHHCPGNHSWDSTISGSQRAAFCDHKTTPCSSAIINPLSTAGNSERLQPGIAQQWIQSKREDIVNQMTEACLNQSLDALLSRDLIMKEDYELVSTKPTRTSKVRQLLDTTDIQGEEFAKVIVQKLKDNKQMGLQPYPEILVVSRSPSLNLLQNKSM

Take `Cc1ccc(NC(=O)c2cccc(C(F)(F)F)c2)cc1N1Cc2cnc(Nc3ccc(N4CCN(Cc5cn(CCCCCOc6cccc7c6C(=O)N(C6CCC(=O)NC6=O)C7=O)nn5)CC4)nc3)nc2N(C)C1=O` (stereo not shown) [DB0646, N-(3-(7-((6-(4-((1-(5-((2-(2,6-Dioxopiperidin-3-yl)-1,3-dioxoisoindolin-4-yl)oxy)pentyl)-1H-1,2,3-triazol-4-yl)methyl)piperazin-1-v)pyridin-3-yl)amino)-1-methyl-2-oxo-1,4-dihydropyrimido[4,5-d]pyrimidin-3(2H)-yl)-4-methylphenyl)-3-(trifluoromethyl)benzamide]: the “logFC of RIPK2 (O43353-1)” value in assay [1] (Experiment wp172) is given as −0.4779; in assay [1] (experiment wp105) it was −0.4215. The logFC in assay [1] (experiment wp105) is on record as −0.4215; in assay [1] (experiment wp172) it was −0.4779; in assay [2] it was −1.144; in assay [3] (experiment wp107), −0.353; in assay [3] (experiment wp117) it was −0.3503; in assay [3] (experiment wp160, 8 hr) it was −0.4714.

Consider `NC(=O)c1c(F)cccc1Nc1nc(Nc2ccc(S(=O)(=O)NCCOCCOCCOCCOCCNc3cccc4c3C(=O)N(C3CCC(=O)NC3=O)C4=O)cc2)ncc1Br` (stereo not shown) [TMX.02.138], for which, in assay [4], the logFC is listed as −1.544 and the “logFC of IRAK3 (Q9Y616)” value is −1.544.

Regarding `Nc1ncc(-c2ccc(S(=O)(=O)N(CCCNC(=O)CCOCCOCCOCCOCCOCCNc3cccc4c3C(=O)N(C3CCC(=O)NC3=O)C4=O)C3CC3)cc2)cc1-c1ccc2c(c1)CCNC2=O` (stereo not shown) [WH.10417.099], the logFC was −0.5009 in assay [3] (experiment wp056), −0.5201 in assay [3] (experiment wp103), −0.3715 in assay [3] (experiment wp105) and −0.5734 in assay [3] (experiment wp107).

For `Cc1ccc(C(=O)Nc2ccc(CN3CCN(CCCOCCOCCOCCNC(=O)COc4cccc5c4C(=O)N(C4CCC(=O)NC4=O)C5=O)CC3)c(C(F)(F)F)c2)cc1C#Cc1cnc2cccnn12` (stereo not shown) [SB1.G.187], the “logFC of RIPK2 (O43353-1)” value in assay [1] (Experiment wp114) is given as −0.8828; in assay [1] (experiment wp105) it was −0.572. Also, the logFC in assay [1] (experiment wp105) was −0.572; in assay [1] (experiment wp114), −0.8828.

Compound `CN(C)C(=O)c1cc2cnc(Nc3ccc(N4CCN(CCCCNC(=O)COc5cccc6c5C(=O)N(C5CCC(=O)NC5=O)C6=O)CC4)cn3)nc2n1C1CCCC1` (stereo not shown) [BSJ.04.132] showed a logFC in assay [5] of −0.4467.

Consider `O=C1CCC(N2C(=O)c3cccc(NCCCCCCCCN4CCC(NC(=O)c5[nH]ncc5NC(=O)c5c(Cl)cccc5Cl)CC4)c3C2=O)C(=O)N1` (stereo not shown) [MFH.5.126.1], for which the logFC in assay [6] was −0.322.

Consider `Cc1ncsc1-c1ccc([C@H](C)NC(=O)[C@@H]2C[C@@H](O)CN2C(=O)[C@@H](NC(=O)CCOCCOCCN2CCN(c3ccc(Nc4ncc(Cl)c(Nc5ccccc5S(=O)(=O)C(C)C)n4)cc3)CC2)C(C)(C)C)cc1` [FMF.06.098.1], for which the logFC in assay [2] is listed as −0.8744.

Consider `CC(=O)c1c(C)c2cnc(Nc3ccc(N4CCN(CCOCCOCCOCCNC(=O)COc5cccc6c5C(=O)N(C5CCC(=O)NC5=O)C6=O)CC4)cn3)nc2n(C2CCCC2)c1=O` (stereo not shown) [BSJ.03.123], for which, in assay [5], the logFC is recorded as −0.3681.

As to `Cc1cc(Nc2ncc(Br)c(Nc3cccc(F)c3C(N)=O)n2)ccc1S(=O)(=O)NCCOCCOCCOCCOCCNc1cccc2c1C(=O)N(C1CCC(=O)NC1=O)C2=O` (stereo not shown) [TMX.02.174], in assay [4], the logFC is reported as −1.343 and the “logFC of IRAK3 (Q9Y616)” value is on record as −1.343.

In assay [6], `CNC(=O)c1ccccc1Nc1cc(Nc2ccc(N3CCN(CCOCCOCCNC(=O)CNc4cccc5c4C(=O)N(C4CCC(=O)NC4=O)C5=O)CC3)cc2OC)ncc1C(F)(F)F` (stereo not shown) [MFH.5.103.1] gave a logFC of −0.3819.
